For series [1], the system named is HCMV. The experiment in a line: Anti-HCMV (anti-human cytomegalovirus) cytopathogenicity test. Format: cell-based. To be noted: Human betaherpesvirus 5, NHDF, 144 h, concentration inhibiting the CPE by 50% vs untreated virus control; HCMV-infected NHDF cells, 6 days, visual assessment. The procedure: Anti-HCMV (Anti-Human Cytomegalovirus) Cytopathogenicity Tests The test compounds are employed as 50 millimolar (mM) solutions in dimethyl sulfoxide (DMSO). Ganciclovir®, Foscarnet® and Cidofovir® are used as reference compounds. After the addition of 2 μl of the 50, 5, 0.5 and 0.05 mM DMSO stock solutions respectively to 98 μl portions of cell culture medium in row […] for duplicate determinations, 1:2 dilutions are carried out with 50 μl portions of medium up to row 11 of the 96-well plate. The wells in rows 1 and 12 each contain 50 μl of medium. 150 μl of a suspension of 1×10^4 cells (human prepuce fibroblasts [NHDF]) are then pipetted into each of the wells (row 1=cell control) and, in rows 2-12, a mixture of HCMV-infected and uninfected NHDF cells (M.O.I.=0.001-0.002), i.e. 1-2 infected cells per 1000 uninfected cells. Row 12 (without substance) serves as virus control. The final test concentrations are 250-0.0005 μM. The plates are incubated at 37° C./5% CO2 for 6 days, i.e. until all the cells in the virus controls are infected (100% cytopathogenic effect [CPE]). The wells are then fixed and stained by adding a mixture of formalin and Giemsa's dye (30 minutes), washed with double-distilled water and dried in a drying oven at 50° C. The plates are then assessed visually using an overhead microscope (plaque multiplier from Technomara). The following data can be obtained from the test plates: EC50 (HCMV)=substance concentration in μM which inhibits the CPE (cytopathic effect) by 50% compared with the untreated virus control;
(In general: Protection from cytopathic effect is a common read-out in antiviral testing.)

Series [2] can be described thus: Cytostatic effects on NHDF cells in the anti-HCMV cytopathogenicity test. To be noted: human, concentration at which no visible cytostatic effects on NHDF cells are evident vs untreated cell control. It is filed as cell-based, human. The procedure: Anti-HCMV (Anti-Human Cytomegalovirus) Cytopathogenicity Tests The test compounds are employed as 50 millimolar (mM) solutions in dimethyl sulfoxide (DMSO). Ganciclovir®, Foscarnet® and Cidofovir® are used as reference compounds. After the addition of 2 μl of the 50, 5, 0.5 and 0.05 mM DMSO stock solutions respectively to 98 μl portions of cell culture medium in row […] for duplicate determinations, 1:2 dilutions are carried out with 50 μl portions of medium up to row 11 of the 96-well plate. The wells in rows 1 and 12 each contain 50 μl of medium. 150 μl of a suspension of 1×10^4 cells (human prepuce fibroblasts [NHDF]) are then pipetted into each of the wells (row 1=cell control) and, in rows 2-12, a mixture of HCMV-infected and uninfected NHDF cells (M.O.I.=0.001-0.002), i.e. 1-2 infected cells per 1000 uninfected cells. Row 12 (without substance) serves as virus control. The final test concentrations are 250-0.0005 μM. The plates are incubated at 37° C./5% CO2 for 6 days, i.e. until all the cells in the virus controls are infected (100% cytopathogenic effect [CPE]). The wells are then fixed and stained by adding a mixture of formalin and Giemsa's dye (30 minutes), washed with double-distilled water and dried in a drying oven at 50° C. The plates are then assessed visually using an overhead microscope (plaque multiplier from Technomara). The following data can be obtained from the test plates: CC50 (NHDF)=substance concentration in μM at which no visible cytostatic effects on the cells are evident compared with the untreated cell control;

We go through 24 compounds from patent US7977349B2, “Substituted quinolones III” (Aicuris GmbH & Co. KG, priority 2006, dated 2011).

By EC50 is commonly meant the midpoint of the concentration-response curve. In general, CC50 refers to the concentration at which the toxic effect on the cells reaches its halfway point. A low value points to greater toxicity to the cells.

`COc1c(N2CCC(C(N)=O)CC2)c(F)cc2c(=O)c(C(=O)NCc3ccc(Cl)cc3Cl)cn(CC(F)(F)F)c12` [Example 27]: the EC50 in series [1] came to 0.013 µM. For the same compound, the CC50 at 6 days in series [2] stood at 21 µM.

In series [1], `COc1c(N2CCCC(CC(=O)O)C2)c(F)cc2c(=O)c(C(=O)NCc3ccc(Cl)cc3Cl)cn(CC(F)(F)F)c12` (stereo not drawn) [Example 51, [3-{[(2,4-Dichlorobenzyl)amino]carbonyl}-6-fluoro-8-methoxy-4-oxo-1-(2,2,2-trifluoroethyl)-1,4-dihydroquinolin-7-yl]piperidin-3-ylacetic acid] returned an EC50 of 0.026 µM. For the same compound, in series [2], it took 47 µM to reach half-maximal cytotoxicity (CC50 at 6 days).

As to `COc1c(N2CCC(C(N)=O)CC2)c(F)cc2c(=O)c(C(=O)NCc3ccc(Cl)cc3C)cn(CC(F)(F)F)c12` [Example 28], the midpoint of the response in series [1], the EC50, lay at 0.014 µM. The CC50 at 6 days in series [2] is 21 µM.

In series [1], `COc1c(N2CCC(C(=O)O)CC2)c(F)cc2c(=O)c(C(=O)NCc3ccc(OC(F)(F)F)cc3C)cn(CC(F)F)c12` [Example 62] showed an EC50 of 0.001 µM. In series [2], this compound gave a CC50 at 6 days of 148 µM.

As to `COc1c(N2CCC(CC(=O)O)CC2)c(F)cc2c(=O)c(C(=O)NCc3ccc(OC(F)(F)F)cc3C)cn(CC(F)(F)F)c12` [Example 53, [6-Fluoro-8-methoxy-3-({[2-methyl-4-(trifluoromethoxy)benzyl]amino}carbonyl)-4-oxo-1-(2,2,2-trifluoroethyl)-1,4-dihydroquinolin-7-yl]piperidin-4-ylacetic acid], in series [1], the response was half-maximal at 0.005 µM (EC50). The same compound displayed a CC50 at 6 days in series [2] of 94 µM.

Compound `COc1c(N2CCC(C(=O)O)CC2)c(F)cc2c(=O)c(C(=O)NCc3ccc(OC(F)(F)F)cc3C)cn([C@@H]3C[C@@H]3F)c12` [Example 63] yielded an EC50 in series [1] of 0.008 µM. The half-maximal cytotoxic concentration (CC50) at 6 days in series [2] came to 47 µM.

In the case of `CCOC(=O)C1CCN(c2c(F)cc3c(=O)c(C(=O)NCc4ccc(OC(F)(F)F)cc4C)cn(CC(F)(F)F)c3c2OC)CC1` [Example 2, Ethyl 1-[6-fluoro-8-methoxy-3-({[2-methyl-4-(trifluoromethoxy)benzyl]amino}carbonyl)-4-oxo-1-(2,2,2-trifluoroethyl)-1,4-dihydroquinolin-7-yl]piperidine-4-carboxylate], a half-maximal response in series [1] (EC50) required 0.005 µM. The midpoint of cytotoxicity in series [2], the CC50 at 6 days, lay at 47 µM.

With `COc1c(N2CCC(C(=O)O)CC2)c(F)cc2c(=O)c(C(=O)NCc3ccc(C(F)(F)F)cc3C)cn(CC(F)(F)F)c12` [Example 54], the midpoint of the response in series [1], the EC50, lay at 0.022 µM. The compound further gave a CC50 at 6 days in series [2] of 21 µM.

Regarding `CCOC(=O)C1CCN(c2c(F)cc3c(=O)c(C(=O)NCc4ccc(OC(F)(F)F)cc4Cl)cn(CC(F)(F)F)c3c2OC)CC1` [Example 3, Ethyl 1-[3-({[2-chloro-4-(trifluoromethoxy)benzyl]amino}carbonyl)-6-fluoro-8-methoxy-4-oxo-1-(2,2,2-trifluoroethyl)-1,4-dihydroquinolin-7-yl]piperidine-4-carboxylate], the EC50 in series [1] was 0.008 µM. Also, the CC50 at 6 days in series [2] stood at 24 µM.

In series [1], `COc1c(N2CCC(CC(=O)O)CC2)c(F)cc2c(=O)c(C(=O)NCc3ccc(Cl)cc3C)cn(C3CC3)c12` [Example 67] displayed an EC50 of 0.061 µM. This compound also registered a CC50 at 6 days in series [2] of 21 µM.

With `COc1c(N2CCC(C(=O)O)CC2)c(F)cc2c(=O)c(C(=O)NCc3ccc(Cl)cc3C)cn(CC(F)(F)F)c12` [Example 58], the midpoint of the response in series [1], the EC50, lay at 0.006 µM. In series [2], half-maximal cytotoxicity (CC50 at 6 days) was put at 47 µM.

In series [1], `COc1c(N2CCC(C(=O)O)CC2)c(F)cc2c(=O)c(C(=O)NCc3ccc(OC(F)(F)F)cc3Cl)cn(CC(F)(F)F)c12` [Example 48, 1-[3-({[2-Chloro-4-(trifluoromethoxy)benzyl]amino}carbonyl)-6-fluoro-8-methoxy-4-oxo-1-(2,2,2-trifluoroethyl)-1,4-dihydroquinolin-7-yl]piperidine-4-carboxylic acid] displayed an EC50 of 0.003 µM. In series [2], this compound showed a CC50 at 6 days of 20 µM.

`COc1c(N2CCC(C(=O)O)CC2)c(F)cc2c(=O)c(C(=O)NCc3ccc(OC(F)(F)F)cc3C)cn(C3CCC3)c12` [Example 61]: a half-maximal effect in series [1] (EC50) was put at 0.007 µM. This compound also came in with a CC50 at 6 days in series [2] of 21 µM.

`COc1c(N2CCC(C(N)=O)CC2)c(F)cc2c(=O)c(C(=O)NCc3ccc(C(F)(F)F)cc3C)cn(CC(F)(F)F)c12` [Example 30] displayed an EC50 in series [1] of 0.034 µM. In series [2], this compound had a CC50 at 6 days of 11 µM.

For `CCOC(=O)C1CCN(c2c(F)cc3c(=O)c(C(=O)NCc4ccc(Cl)cc4C)cn(CC(F)(F)F)c3c2OC)CC1` [Example 7], in series [1], it took 0.018 µM to reach a half-maximal effect (EC50). In series [2], this compound gave a CC50 at 6 days of 94 µM.

As for `COc1c(N2CCC(C(=O)O)CC2)c(F)cc2c(=O)c(C(=O)NCc3ccc(Cl)cc3Cl)cn(CC(F)(F)F)c12` [Example 50, 1-[3-{[(2,4-Dichlorobenzyl)amino]carbonyl}-6-fluoro-8-methoxy-4-oxo-1-(2,2,2-trifluoroethyl)-1,4-dihydroquinolin-7-yl]piperidine-4-carboxylic acid], in series [1], a half-maximal response (EC50) required 0.012 µM. The compound also registered a CC50 at 6 days in series [2] of 47 µM.

As for `COc1c(N2CCC3(CC2)CNC(=O)C3)c(F)cc2c(=O)c(C(=O)NCc3ccc(OC(F)(F)F)cc3Cl)cn(CC(F)(F)F)c12` [Example 36], the EC50 in series [1] is 0.014 µM. The compound further yielded a CC50 at 6 days in series [2] of 21 µM.

In turn, `CCOC(=O)C1CCN(c2c(F)cc3c(=O)c(C(=O)NCc4ccc(Cl)cc4Cl)cn(CC(F)(F)F)c3c2OC)CC1` [Example 1, Ethyl 1-[3-{[(2,4-dichlorobenzyl)amino]carbonyl}-6-fluoro-8-methoxy-4-oxo-1-(2,2,2-trifluoroethyl)-1,4-dihydroquinolin-7-yl]piperidine-4-carboxylate] yielded an EC50 in series [1] of 0.009 µM. In series [2], this compound returned a CC50 at 6 days of 94 µM.

With `COc1c(N2CCC[C@H](CC(=O)O)C2)c(F)cc2c(=O)c(C(=O)NCc3ccc(OC(F)(F)F)cc3C)cn(CC(F)(F)F)c12` [Example 73, {(3R)-1-[6-Fluoro-8-methoxy-3-({[2-methyl-4-(trifluoromethoxy)benzyl]amino}carbonyl)-4-oxo-1-(2,2,2-trifluoroethyl)-1,4-dihydroquinolin-7-yl]piperidin-3-yl}acetic acid], the EC50 in series [1] is 0.003 µM. In series [2], this compound yielded a CC50 at 6 days of 47 µM.

With `COc1ccc(CNC(=O)c2cn(CC(F)(F)F)c3c(OC)c(N4CCC(C(=O)O)CC4)c(F)cc3c2=O)c(Cl)c1` [Example 55], the EC50 in series [1] stood at 0.031 µM. In series [2], this compound displayed a CC50 at 6 days of 16 µM.

On to `COc1c(N2CCC(C(=O)O)CC2)c(F)cc2c(=O)c(C(=O)NCc3c(C)cc(Cl)cc3Cl)cn(CC(F)(F)F)c12` [Example 57], for which a half-maximal response in series [1] (EC50) required 0.026 µM. The compound also had a CC50 at 6 days in series [2] of 23 µM.

With `COc1c(N2CCC(C(N)=O)CC2)c(F)cc2c(=O)c(C(=O)NCc3ccc(OC(F)(F)F)cc3C)cn(CC(F)(F)F)c12` [Example 31, 1-[6-Fluoro-8-methoxy-3-({[2-methyl-4-(trifluoromethoxy)benzyl]amino}carbonyl)-4-oxo-1-(2,2,2-trifluoroethyl)-1,4-dihydroquinolin-7-yl]piperidine-4-carboxamide], the EC50 in series [1] was found to be 0.008 µM. The compound also showed a CC50 at 6 days in series [2] of 16 µM.

As for `CCOC(=O)C1CCN(c2c(F)cc3c(=O)c(C(=O)NCc4ccc(Cl)cc4Cl)cn([C@H]4C[C@H]4F)c3c2OC)CC1` [Example 13], the EC50 in series [1] amounted to 0.019 µM. Moreover, the midpoint of cytotoxicity in series [2], the CC50 at 6 days, lay at 23 µM.

Compound `Cc1cc(OC(F)(F)F)ccc1CNC(=O)c1cn(CC(F)(F)F)c2c(O)c(N3CCC(C(=O)O)CC3)c(F)cc2c1=O` [Example 77, 1-[6-Fluoro-8-hydroxy-3-({[2-methyl-4-(trifluoromethoxy)benzyl]amino}carbonyl)-4-oxo-1-(2,2,2-trifluoroethyl)-1,4-dihydroquinolin-7-yl]piperidine-4-carboxylic acid] showed an EC50 in series [1] of 0.006 µM. In series [2], this compound showed a CC50 at 6 days of 250 µM.
